Patent US10301282B2, “Polymorphic form X of nilotinib dihydrochloride hydrate” (Cipla Limited, priority 2015, dated 2019)
Where a name gives a salt, the structure may show the parent alone. Read-outs that look alike come from different tables or passages of the source.

Assays:
[1] = as described in U.S. Pat. No. 8,163,904; cited from earlier work
[2] = as described in U.S. Pat. No. 8,163,904; cited from earlier work; remark: listed apart in the source
[3] = Intrinsic dissolution study in 0.1 N HCl; assay type: physicochemical; conditions: at 15 minutes time interval, conventional intrinsic dissolution assembly
Procedure: Intrinsic dissolution studies were conducted on nilotinib dihydrochloride Form X and nilotinib monohydrochloride monohydrate in 0.1 N HCl using a conventional intrinsic dissolution assembly.

Hygroscopicity = assay type: physicochemical

Cc1cn(-c2cc(NC(=O)c3ccc(C)c(Nc4nccc(-c5cccnc5)n4)c3)cc(C(F)(F)F)c2)cn1 [Form B, nilotinib hydrochloride monohydrate]
hygroscopicity [1]: hygroscopic
solubility in water [2]: very slightly soluble in water

Cc1cn(-c2cc(NC(=O)c3ccc(C)c(Nc4nccc(-c5cccnc5)n4)c3)cc(C(F)(F)F)c2)cn1 [nilotinib dihydrochloride Form X, nilotinib dihydrochloride hydrate]
release (intrinsic dissolution) ([3]; dihydrochloride hydrate): 109%
hygroscopicity (Hygroscopicity): substantially non-hygroscopic

Cc1cn(-c2cc(NC(=O)c3ccc(C)c(Nc4nccc(-c5cccnc5)n4)c3)cc(C(F)(F)F)c2)cn1 [nilotinib monohydrochloride monohydrate]
release (intrinsic dissolution) ([3]; monohydrochloride monohydrate): 114%
